The values below come from patent US20200206304A1, “METHODS AND COMPOSITIONS FOR EFFICIENT DELIVERY THROUGH MULTIPLE BIO BARRIERS” (Cedars-Sinai Medical Center, priority 2017, published 2020).

Data set [1] deals with brain cells. The following applies: cortex. The protocol: For the particulate fluorescence analysis, images were converted to binary images, and then 5 ROIs 20*20 μm^2 were drawn per image. The area of each particle on the ROI was measured using the Image) particle analysis tool, where each particle was measured separately. Sizes were then summarized, sorted, and further analyzed using Minitab18 software (Minitab, Inc, State College, Pa., USA). Particulate areas observed between different conditions were compared via a one-way ANOVA combined with post-hoc Tukey tests to test differences between each experimental group.
A more reliable method to separate the particulate from the cellular fluorescence was reasoned to be by adjusting the levels of the image and converting it to a binary image, allowing the detection of only particulates eliminating interference of the diffused background. FIGS. 29A-29D illustrate intracellular fluorescence of mini nanodrugs.
Each ROI was converted to binary (black and white) image and the area and number of particles were quantified. 3 images per brain area were tested for 3 mice per group.
The particle content (example of ROI in FIG. 29A) then was measured. The average size of the particulate fluorescence is a proxy to estimate the intracellular load of fluorescent nanoconjugates following their injections. An example of such an analysis is shown in FIG. 29A: the yellow squares indicate regions of interest that were used to quantify particulate fluorescence. FIGS. 29B-29C summarize the average size of the intracellular fluorescence particles in the cortex ([…]), midbrain (FIG. 29C), and the hippocampus (FIG. 29C).

For data set [2], the target named is T1, Aβ plaque (Homo sapiens, UniProt P05067).
T1 construct: tissue Jackson Laboratories; host or cells: brain of 6-8 month old APPswe/PS1ΔE9 transgenic mice, plaques labelled in vivo after iv injection and counterstained on sections
T1 sequence (P05067 672-713 limits assumed): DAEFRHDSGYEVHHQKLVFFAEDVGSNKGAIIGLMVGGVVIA
Briefly: Percentage of total plaques labeled by mini nanodrugs in AD mice. In kind it is in vivo,  (B6.Cg-Tg (APPswe/PS1ΔE9) 85Dbo/J hemizygous) mice. The following applies: injected dose 8X (0.55 μmol/Kg). The protocol: Slides were air dries and fixed using freshly diluted 2% PFA for 5 minutes. The PFA was washed 3 timed with PBS, and brains were covered with 70% EtOH for 5 minutes before washing with dH2O for 2 minutes. 1× Amylo-Glo (Biosenses, #TR-300-AG 100×, diluted with PBS) was then added for 10 minutes. The slides were then washed with PBS (5 minutes) and dH2O (15 seconds) and mounted (Fluoromount-G, No DAPI, Invitrogen), and stored at 4° C. prior to imaging.
Brains were collected and preserved in OTC for immunostaining.

Data set [3] relates to LRP-1 transcytosis pathway. Particulars: 70-fold molar excess of P/LLL (40%).
The conditions of data set [4]: 0.5, 1, 2 and 4 hours after injection.

PMLA/LLL/AP2/rhodamine [P/LLL/AP2]: the “average area per particle” value in data set [1] was found to be 0.42±0.72 μm^2. For the same substance, in data set [2], the “Percentage of total plaques labeled by the reagents” value turned out to be 1.23%. Further, the “competition by unlabeled P/LLL (40%)” value in data set [3] is “did not exhibit competition”. Further, the “Visibility of nanoconjugate around blood vessels in ex vivo brain slices” value in data set [4] is “visible around blood vessels for two hours and almost disappeared at 4 hours”.
